{
  "source": "paper PMC2759517",
  "about": "(PLoS ONE, 2009)",
  "test_system": "PA-HA from several FluA strains",
  "type": "binding, influenza A virus",
  "data": [
    {"smiles": "CC[C@H](C)[C@H](NC(=O)[C@H](C)NC(=O)[C@H](CC(N)=O)NC(=O)[C@H](CCC(N)=O)NC(=O)[C@H](C)NC(=O)[C@@H]1CCCN1C(=O)[C@@H](NC(=O)[C@H](CCCCN)NC(=O)[C@H](CC(C)C)NC(=O)[C@H](Cc1ccccc1)NC(=O)[C@H](CC(C)C)NC(=O)[C@H](CC(C)C)NC(=O)[C@@H](NC(=O)[C@@H]1CCCN1C(=O)[C@H](CC(N)=O)NC(=O)[C@@H](NC(=O)[C@H](CC(=O)O)NC(=O)[C@@H](N)CCSC)C(C)C)[C@@H](C)O)C(C)C)C(=O)N[C@@H](CO)C(=O)N[C@H](C(=O)N[C@H](C(=O)N[C@@H](Cc1ccccc1)C(=O)N1CCC[C@H]1C(=O)N[C@@H](Cc1ccc(O)cc1)C(=O)N[C@H](C(N)=O)[C@@H](C)O)[C@@H](C)O)[C@@H](C)O", "note": "[PB1_1–25A]", "values": [
      {"measurement": "Binding of FluA PA-HA to immobilized peptide", "result": "bound"}
    ]}
  ]
}
